Assay results published in patent publication US20090082435A1, “Methods, Compositions, And Compounds For Modulation Of Monoacylglycerol Lipase, Pain, And Stress-Related Disorders” (The Regents of the University of California, priority 2005, published 2009).

Tests used:
[1] = test system: stress-induced analgesia in rats; assay: non-opioid stress-induced analgesia: foot shock, then tail-flick test; assay type: in vivo, rat
[2] = molecular target: T1, native rat brain MGL (Rattus norvegicus, UniProt Q8R431); assay: MGL activity assay, rat brain cytosol, 2-monooleoylglycerol substrate; assay type: biochemical; settings: for effect on rat brain MGL activity in vitro: FIG. 3b
T1 construct: from tissue; host or cells: Wistar rat brain, cytosol fraction
T1 sequence (Q8R431 1-303): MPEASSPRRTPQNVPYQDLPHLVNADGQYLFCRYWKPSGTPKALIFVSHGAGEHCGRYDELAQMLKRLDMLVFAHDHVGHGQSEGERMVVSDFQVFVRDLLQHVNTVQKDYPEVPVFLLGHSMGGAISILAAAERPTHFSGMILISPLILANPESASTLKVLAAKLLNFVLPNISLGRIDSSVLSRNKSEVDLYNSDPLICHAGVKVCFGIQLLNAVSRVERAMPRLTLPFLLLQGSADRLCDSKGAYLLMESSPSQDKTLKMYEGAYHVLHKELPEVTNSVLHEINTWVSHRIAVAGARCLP

[3] = test system: tail-flick latencies in rats; assay: tail-flick test without stressor: basal thresholds, agonist antinociception; assay type: in vivo, rat; settings: for basal nociceptive threshold (tail-flick latencies) in absence of stressor: same doses and routes as in stress analgesia tests; for drug's own antinociceptive effects after repeated daily injections: prior to foot shock, WIN55,212-2 14 days, morphine 7 days
[4] = test system: organotypic slice cultures of rat forebrain; assay: endocannabinoid content by LC/MS in organotypic brain slice cultures; assay type: cell-based; settings: URB602 100 μM; for anandamide levels: URB597 1 μM
Method: Brain slice cultures. Brain slices were cultured from Wistar rats. Pups were sacrificed on post-natal day 5 by decapitation following cryo-anaesthesia. Brains were removed and cut (0.4 mm-thick coronal slices) using a vibratome in a bath of ice-cold high-glucose Dulbecco's Modified Eagle's Medium (Gibco). Hemispheres were placed on Millicell culture inserts (Millipore) in 6-well plates with serum-based culture medium (1.5 ml) composed of basal Eagle medium with Earle's salts (100 ml), Earle's balanced salt solution (50 ml), heat-inactivated horse serum (50 ml), L-glutamine (0.2 mM, 1 ml) and 50% glucose (2 ml) (Gibco). Slices were maintained at 37° C. with 5% CO2 for 7 days before use.
(§1) Lipid extractions and LC/MS analyses. Ex vivo experiments. Rats were habituated to the guillotine for at least 7 days prior to the experiment and sacrificed them either before or various times (2, 7, 15 and 25 min) after a 3-min foot shock (n=10 per group). The brains were rapidly removed, dissected and stored frozen (−80° C.) until lipid extraction. In vitro experiments. […] In some experiments, slices were incubated with ionomycin (2 μM) in DMEM for additional 15 min. Reactions were stopped and washed with ice-cold 50% methanol (1 ml). Slices were collected in the same medium (0.2 ml) and homogenized. Brain tissue (≈50 mg) and slice homogenates were suspended in methanol (2 ml) containing [^2H]-containing internal standards (25 pmol). Lipids were extracted in methanol-chloroform-H2O (1:2:0.25). The organic phase was recovered, evaporated to dryness, reconstituted in chloroform/methanol (1:3, 80 μL) and subjected to LC/MS analysis as described (Giuffrida, A. et al., Anal. Biochem. 280:87-93 (2000)).

[5] = molecular target: phospholipase C (PLC) (Bacillus cereus, UniProt P09598); assay: phospholipase C activity assay; assay type: biochemical, B. cereus
[6] = test system: PLD; assay: phospholipase D activity assay; assay type: biochemical, S. chromofuscus
[7] = molecular target: T2, rat brain FAAH (Rattus norvegicus, UniProt P97612); assay: FAAH activity assay, rat brain membranes, anandamide substrate; assay type: biochemical; settings: FIG. 3c
T2 construct: from tissue; host or cells: Wistar rat brain, membrane fraction
T2 sequence (P97612 1-579): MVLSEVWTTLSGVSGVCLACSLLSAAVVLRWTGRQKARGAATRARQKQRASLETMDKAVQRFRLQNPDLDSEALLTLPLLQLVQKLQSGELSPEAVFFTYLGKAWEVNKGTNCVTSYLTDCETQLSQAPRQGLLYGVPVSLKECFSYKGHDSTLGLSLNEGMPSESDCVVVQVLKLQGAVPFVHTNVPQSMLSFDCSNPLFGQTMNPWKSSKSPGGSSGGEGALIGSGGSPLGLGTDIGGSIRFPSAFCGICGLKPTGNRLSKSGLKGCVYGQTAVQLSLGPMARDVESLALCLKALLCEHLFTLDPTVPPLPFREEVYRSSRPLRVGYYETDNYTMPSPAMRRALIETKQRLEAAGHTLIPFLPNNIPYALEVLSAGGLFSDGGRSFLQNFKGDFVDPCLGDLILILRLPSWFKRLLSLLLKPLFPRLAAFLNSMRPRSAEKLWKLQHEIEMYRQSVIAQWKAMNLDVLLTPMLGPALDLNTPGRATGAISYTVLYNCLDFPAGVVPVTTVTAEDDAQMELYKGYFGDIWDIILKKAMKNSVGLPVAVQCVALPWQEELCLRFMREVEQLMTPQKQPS

[8] = test system: 2-AG and anandamide levels in rat brain; assay: ex vivo brain endocannabinoid levels by LC/MS after PAG microinjection and foot shock; assay type: in vivo
Method: as §1

[9] = test system: diacylglycerol lipase (DGL); assay: DGL activity assay, rat brain protein, [3H]dioleoylglycerol; assay type: biochemical
[10] = molecular target: rat cerebellar membranes; assay: [35S]-GTP-γ-S binding to rat cerebellar membranes; assay type: biochemical; settings: data not shown; read-out: half-maximal effective concentration (EC50), [35S]-GTP-γ-S binding
[11] = molecular target: T3, cyclooxygenase (Cox)-2 (Homo sapiens, UniProt P35354); assay: cyclooxygenase assay, commercial kit with purified enzymes; assay type: biochemical
T3 construct: purchased Cayman Chemicals, Ann Arbor, Mich
T3 sequence (P35354 18-604): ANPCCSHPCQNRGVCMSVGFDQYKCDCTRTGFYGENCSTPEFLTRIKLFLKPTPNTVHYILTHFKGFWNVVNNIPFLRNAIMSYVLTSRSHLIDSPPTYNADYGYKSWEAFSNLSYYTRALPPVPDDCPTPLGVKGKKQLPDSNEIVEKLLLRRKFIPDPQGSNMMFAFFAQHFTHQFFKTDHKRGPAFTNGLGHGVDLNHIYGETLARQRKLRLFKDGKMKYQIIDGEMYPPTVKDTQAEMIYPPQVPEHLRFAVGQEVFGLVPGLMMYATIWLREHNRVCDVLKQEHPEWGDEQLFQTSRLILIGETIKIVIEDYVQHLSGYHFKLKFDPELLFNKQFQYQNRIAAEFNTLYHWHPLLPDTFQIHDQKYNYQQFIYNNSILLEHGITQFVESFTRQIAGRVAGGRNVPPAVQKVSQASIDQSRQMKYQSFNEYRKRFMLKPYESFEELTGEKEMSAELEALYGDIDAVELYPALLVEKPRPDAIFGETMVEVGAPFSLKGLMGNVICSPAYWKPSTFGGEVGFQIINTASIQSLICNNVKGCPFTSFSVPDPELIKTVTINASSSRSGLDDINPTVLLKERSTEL

[12] = URB602 0.1 nmol in PAG, 25 min after shock

Sequence of phospholipase C (PLC) (P09598 39-283 limits assumed): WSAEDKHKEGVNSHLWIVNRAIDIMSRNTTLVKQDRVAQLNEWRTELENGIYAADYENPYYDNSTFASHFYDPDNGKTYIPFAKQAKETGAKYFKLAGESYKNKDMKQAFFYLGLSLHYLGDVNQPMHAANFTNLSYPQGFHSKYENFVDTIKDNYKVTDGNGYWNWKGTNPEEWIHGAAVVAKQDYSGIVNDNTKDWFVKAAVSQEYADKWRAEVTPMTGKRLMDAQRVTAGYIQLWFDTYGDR

In the case of `Cc1c(C(=O)NN2CCCCC2)nn(-c2ccc(Cl)cc2Cl)c1-c1ccc(I)cc1` [AM251], the “effect of antagonist on stress-induced analgesia, systemic” value (shortened to “effect of antagonist”) ([1]; rat, in vivo, ip) is reported as “almost abolished”.

With `NC(=O)c1cccc(-c2cccc(OC(=O)NC3CCCCC3)c2)c1` [URB597] the “effect on rat brain MGL activity in vitro” value [2] was “no effect”, the “basal nociceptive threshold (tail-flick latencies) in absence of stressor” value (from here on “basal nociceptive threshold”) [3] was “did not modify” and the “effect on stress-induced analgesia, URB597 in dorsolateral PAG” value ([1]; rat, in vivo) was “significant potentiation”. For the same compound, the “effect on stress-induced analgesia, URB597 systemic” value ([1]; rat, in vivo, ip) was “significant potentiation” and the anandamide levels [4] was “markedly elevated”.

For `O=C(Nc1cccc(-c2ccccc2)c1)OC1CCCCC1` [URB602, biphenyl-3-yl carbamic acid cyclohexyl ester], the “effect on rat brain MGL activity in vitro” value [2] was “inhibits”, the IC50 ([2]; broken cell preparations, read-out: half-maximal concentration (IC50) for inhibition of MGL) was 28 ± 4 µM and the “mechanism of MGL inhibition” value ([2]; kinetic analyses) was “non-competitive”. For the same compound, the “Vmax of MGL with URB602” value ([2]; n=4, without URB602 1814±51) was 541±20 nmol-min-mg^−1 protein, the “effect on PLC activity” value [5] was “did not affect” and the “basal nociceptive threshold” value [3] was “without altering”. The “effect on stress-induced analgesia, URB602 in dorsolateral PAG” value ([1]; 0.1 nmol microinjection) was “enhanced”, the “effect on stress-induced analgesia, URB602 in ventrolateral PAG” value ([1]; 0.1 nmol microinjection) was “enhanced” and the “effect on PLD activity” value [6] was “did not affect”. For the same compound, the “effect on rat brain FAAH activity” value [7] was “does not affect”, the “basal 2-AG levels” value [4] was “significantly increased” and the anandamide levels [4] was “did not modify”. The “2-AG accumulation elicited by ionomycin” value ([4]; ionomycin 2 μM) was “enhanced”, the “2-AG content in midbrain fragments vs untreated controls” value [8, 12] was “significantly higher” and the “anandamide levels in midbrain vs untreated controls” value [8, 12] was “identical”. The “2-AG and anandamide concentrations in occipital cortex” value ([8]; URB602 injection into the PAG) was “not affected”, the “effect on DGL activity” value [9] was “did not affect” and the EC50 [10] was > 100 µM. For the same compound, the “effect on Cox-2 activity” value [11] was “did not affect”.

In the case of `Cc1c(C(=O)c2cccc3ccccc23)c2cccc3c2n1[C@H](CN1CCOCC1)CO3` [WIN55, 212-2], the “drug's own antinociceptive effects after repeated daily injections” value [3] is reported as “decrease” and the “stress-induced analgesia in rats made tolerant to the agonist” value ([1]; rat, in vivo) is reported as “marked reduction”.

In the case of `CN1CC[C@]23c4c5ccc(O)c4O[C@H]2[C@@H](O)C=C[C@H]3[C@H]1C5` [morphine], the “mean tail-flick latency after morphine, cannabinoid tolerant rats” value ([3]; morphine 2.5 mg-kg^−1 s.c., rats tolerant to WIN55,212-2, n=6-7) is reported as 6.09 ± 1.93 s, the “mean tail-flick latency after morphine, control rats” value ([3]; morphine 2.5 mg-kg^−1 s.c., vehicle-treated controls, n=6-7) is reported as 5.33 ± 0.21 s and the “drug's own antinociceptive effects after repeated daily injections” value [3] is reported as “decrease”. The “stress-induced analgesia in rats made tolerant to the agonist” value ([1]; rat, in vivo) was “normal degree”.

With `O=C1CC[C@@]2(O)[C@H]3Cc4ccc(O)c5c4[C@@]2(CCN3CC2CC2)[C@H]1O5` [naltrexone] the “effect of antagonist” value ([1]; rat, in vivo, ip) was “insensitive”.

`Cc1c(C(=O)NN2CCCCC2)nn(-c2ccc(Cl)cc2Cl)c1-c1ccc(Cl)cc1` [rimonabant] was tested, and the “basal nociceptive threshold” value [3] was “does not alter”, the “effect of low-dose rimonabant alone on stress analgesia” value ([1]; 0.2 nmol in PAG) was “insufficient to reverse” and the “rimonabant effect on MAFP enhancement of stress analgesia” value ([1]; co-injection, rimonabant 0.2 nmol) was “blocked”. The “effect of antagonist” value ([1]; i.p., naltrexone 14 mg-kg^−1, rimonabant, AM251, SR144528 5 mg-kg^−1) was “almost abolished”, the “rimonabant effect on URB602 enhancement of stress analgesia” value ([1]; local co-administration in PAG, rimonabant 0.2 nmol) was “prevented” and the “effect on stress-induced analgesia, ventrolateral PAG” value ([1]; rimonabant 2 nmol) was “inactive”. The “effect on stress-induced analgesia, dorsolateral PAG” value ([1]; rimonabant 2 nmol microinjected) was “significantly reduced”, the “rimonabant effect on URB597 potentiation of stress analgesia” value ([1]; rimonabant 1 mg-kg^−1 i.p., 0.2 nmol in the PAG) was “prevented” and the “rimonabant effect on VDM11 enhancement of stress analgesia” value ([1]; rimonabant 2 mg-kg^−1 i.p.) was “blocked”. For the same compound, the “effect on stress-induced analgesia, lateral ventricle” value ([1]; rimonabant 2-10 nmol) was “ineffective”.
